Here are results for six compounds from patent US4871765A, “Amine derivative and its salt and anti-ulcer agent containing the same” (Toyama Chemical Co., Ltd., priority 1987, dated 1989).

Data set [1] is described as follows: Acute toxicity. In kind it is in vivo. Particulars: mouse, in vivo; ICR mice (male, 27-30 g), intravenous, up and down method. As to the method:
(§1) A test compound was administered to ICR mice (male, 27-30 g) intravenously,and the LD50 value was calculated by the up and down method.

Data set [2] has as its system gastric acid secretion. Description: Inhibitory activity on gastric acid secretion (pylorus ligation method). In kind it is in vivo, Wistar rats (male). Particulars: intraduodenal, histamine 25 mg/kg s.c., 3 hours. The protocol:
[I] Inhibitory activity on gastric acid secretion (pylorus ligation method)
This activity was measured in accordance with the method by H. Shay et al. described in Gastroenterology, 5, 43 (1945). Groups of six or seven Wistar rats (male, 190-230 g) were fasted for 24 hours, following which the pylorus of each rat was ligated under ether anesthesia. The test compounds were administered intraduodenally after ligation. Thereafter, the rats were subjected to celiorrhaphy and immediately 25 mg/kg of histamine was administered to them subcutaneously at the dorsal. After 3 hours, the cardia of stomach was ligated, and then the stomach was removed. The gastric juice was collected by centrifugation and the total amount was quantitated. 1 ml of the gastric juice was taken and titrated with a 0.1 N aqueous sodium hydroxide solution to an end point of pH 7.0. In administering the test compound, the compound was dissolved in dimethyl sulfoxide (DMSO) and then diluted with distilled water to obtain a 0.25% aqueous DMSO solution containing the test compound. A 0.25% aqueous DMSO solution containing no test compound was administered to control group.
The inhibition rate of gastric acid secretion was calculated from the following equation: [formula]

In data set [3] the test system is ICR mice. Description: Acute toxicity. The format is in vivo. To be noted: ICR mice (male, 27-30 g), intravenous, up and down method. The protocol: as §1

In general, LD50 refers to the dose expected to kill half of the subjects tested. Higher therefore signals a less toxic substance. For `CN(C)Cc1ccc(CSCCNC(=NS(C)(=O)=O)NCC(O)c2ccc(O)cc2)o1` (stereo not shown) [Test compound 5, reference compound], the LD50 in data set [1] was determined as 90.7 mg/kg.
Usually inhibition stands for the percentage by which the read-out fell short of the control. As for `CNCc1ccc(CSCCNC(=NS(C)(=O)=O)NCC(O)c2ccc(O)cc2)o1` (stereo not shown) [compound 1], in data set [1], the LD50 was found to be 100 mg/kg. The inhibition at 0.625 mg/kg in data set [2] (Rattus norvegicus, dose 0.625 mg/kg, **p < 0.01, read-out: Inhibition rate) was 67.6%. In data set [2] (Rattus norvegicus, dose 1.25 mg/kg, **p < 0.01, *p < 0.05, read-out: Inhibition rate), the inhibition at 1.25 mg/kg was found to be 82.2%.
Compound “N-[2-(4-carbamoylphenyl)-2-hydroxyethyl]-N'-methanesulfonyl-N"-[2-[[5-(methylamino)methyl-2furyl]-methylthio]ethyl]guanidine [Test compound 2]” showed an LD50 in data set [3] of 129.8 mg/kg.
As for “N-[2-hydroxy-2-(4-hydroxyphenyl)ethyl]-N'-methanesulfonyl-N"-[2-[[5-(methylamino)methyl-2-furyl]methylthio]ethyl]guanidine [Example 1 (1)]”, the Inhibition rate in data set [2] (dose 1.25 mg/kg, **p < 0.01, *p < 0.05, listed as 2) is 51.3%; in data set [2] (dose 1.25 mg/kg, **p < 0.01, *p < 0.05, listed as 3), 54.2%; in data set [2] (dose 1.25 mg/kg, **p < 0.01, *p < 0.05, listed as 4) it was 30.6%.
Regarding “N-[2-hydroxy-2-[3-(methanesulfonylamino)phenyl]ethyl]-N'-methanesulfonyl-N"-[2-[[5-(methylamino)-methyl-2-furyl]methylthio]ethyl]guanidine [Test compound 3]”, in data set [3], the LD50 worked out at 151.0 mg/kg.
Compound “S(-)-N-[2-hydroxy-2-(4-hydroxyphenyl)ethyl]-N'-methanesulfonyl-N"-[2-[[5-(methylamino)methyl-2-furyl]methylthio]ethyl]guanidine [Example 5]” had an Inhibition rate in data set [2] (dose 5.0 mg/kg) of 32.7%.
